Test results reported in US7763642B2 (Sterix Ltd., priority 2004, dated 2010).
Where two headings read alike, the source gives them in different places.

What was measured:
[1] = molecular target: T1, aromatase (Homo sapiens, UniProt P11511); assay: Aromatase activity in JEG3 choriocarcinoma cells (Protocol 6); type: cell-based
T1 construct: Intact monolayers of JEG3 cells (2.5×10^6 cells) in triplicate 25 cm^2 tissue culture flasks; host or cells: JEG3 choriocarcinoma cells
T1 sequence (P11511 1-503): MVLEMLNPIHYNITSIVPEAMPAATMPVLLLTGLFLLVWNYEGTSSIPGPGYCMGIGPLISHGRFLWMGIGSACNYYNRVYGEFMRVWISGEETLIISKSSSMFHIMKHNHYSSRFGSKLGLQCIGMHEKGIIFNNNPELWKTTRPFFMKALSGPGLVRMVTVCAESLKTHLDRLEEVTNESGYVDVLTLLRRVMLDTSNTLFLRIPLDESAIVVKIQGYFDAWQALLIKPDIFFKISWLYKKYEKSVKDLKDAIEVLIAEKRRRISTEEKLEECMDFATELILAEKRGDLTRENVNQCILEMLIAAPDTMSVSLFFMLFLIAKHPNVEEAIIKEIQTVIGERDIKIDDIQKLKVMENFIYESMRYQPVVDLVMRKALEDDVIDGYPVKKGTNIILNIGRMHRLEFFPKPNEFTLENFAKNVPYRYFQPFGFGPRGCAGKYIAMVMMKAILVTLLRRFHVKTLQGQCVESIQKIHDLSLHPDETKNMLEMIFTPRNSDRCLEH
Description: Aromatase activity is measured in JEG3 choriocarcinoma cells, obtained from the ATCC. […] Cells are maintained in Minimal Essential Medium (MEM, Flow Laboratories, Irvine, Scotland) containing 20 mM HEPES, 10% foetal bovine serum, 2 mM glutamine, non-essential amino acids and 0.075% sodium bicarbonate. Intact monolayers of JEG3 cells (2.5×10^6 cells) in triplicate 25 cm^2 tissue culture flasks are washed with Earle's Balanced salt solution (EBSS, from ICN Flow, High Wycombe, UK) and incubated with [1β-^3H] androstenedione (2-5 nM, 26 Ci/mmol, New England Nuclear, Boston, Mass., USA) for 30 min with inhibitors over the range of 10 pm-10 μM. During the aromatase reaction, ^3H2O is liberated which can he quantified using a liquid scintillation spectrometer (Beckman-Coulter, High Wycombe, Bucks. UK). […] The number of cell nuclei per flask is determined using a Coulter Counter after treating the cell monolayers with Z aponin.
Unpaired Student's t test was used to test the statistical significance of results. IC50 values were calculated as the concentration of inhibitor required to obtain a 50% inhibition of aromatase activity.

[2] = molecular target: T2, steroid sulphatase (STS) (Homo sapiens, UniProt P08842); assay: Inhibition of steroid sulphatase activity in JEG3 cells (Protocol 1); type: cell-based; settings: for inhibition at 10 µM: JEG-3, read-out: % STS INHIBITION (10 μM)
T2 construct: Intact monolayers of JEG3 cells in triplicate 25 cm^2 tissue culture flasks; host or cells: JEG3 choriocarcinoma cells
T2 sequence (P08842 22-583): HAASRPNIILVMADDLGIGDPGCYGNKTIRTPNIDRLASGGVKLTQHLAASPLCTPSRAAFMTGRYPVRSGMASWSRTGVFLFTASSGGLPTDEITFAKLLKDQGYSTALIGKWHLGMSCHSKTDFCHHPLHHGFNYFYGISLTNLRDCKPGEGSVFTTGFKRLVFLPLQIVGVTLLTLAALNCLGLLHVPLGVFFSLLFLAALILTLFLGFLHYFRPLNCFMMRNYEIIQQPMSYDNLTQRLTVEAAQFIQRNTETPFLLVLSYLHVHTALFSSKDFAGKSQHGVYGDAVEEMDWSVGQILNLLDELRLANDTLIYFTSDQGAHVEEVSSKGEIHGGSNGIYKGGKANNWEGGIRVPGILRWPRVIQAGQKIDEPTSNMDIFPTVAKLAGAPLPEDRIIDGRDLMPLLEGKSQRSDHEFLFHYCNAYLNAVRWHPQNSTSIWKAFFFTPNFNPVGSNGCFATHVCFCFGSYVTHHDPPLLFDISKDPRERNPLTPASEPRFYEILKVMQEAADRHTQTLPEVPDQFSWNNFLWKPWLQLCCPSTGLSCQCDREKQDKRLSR
Description: Steroid sulphatase activity is measured in vitro using intact JEG3 choriocarcinoma cells. This cell line may be used to study the control of human breast cancer cell growth.
Cells are maintained in Minimal Essential Medium (MEM) (Flow Laboratories, Irvine, Scotland) containing 20 mM HEPES, 5% foetal bovine serum, 2 mM glutamine, non-essential amino acids and 0.075% sodium bicarbonate. Up to 30 replicate 25 cm2 tissue culture flasks are seeded with approximately 1×10^5 cells/flask using the above medium. Cells are grown to 80% confluency and the medium is changed every third day.
Intact monolayers of JEG3 cells in triplicate 25 cm^2 tissue culture flasks are washed with Earle's Balanced Salt Solution (EBSS from ICN Flow, High Wycombe, U.K.) and incubated for 3-4 hours at 37° C. with 5 pmol (7×10^5 dpm) [6,7-3H]oestrone-3-sulphate (specific activity 60 Ci/mmol from New England Nuclear, Boston, Mass., U.S.A.) in serum-free MEM (2.5 ml) together with oestrone-3-sulphamate (11 concentrations: 0; 1 fM; 0.01 pM; 0.1 pM; 1 pM; 0.01 nM; 0.1 nM; 1 nM; […]). After incubation each flask is cooled and the medium (1 ml) is pipetted into separate tubes containing [14C]oestrone (7×10^3 dpm) (specific activity 97 Ci/mmol from Amersham International Radiochemical Centre, Amersham, U.K.). The mixture is shaken thoroughly for 30 seconds with toluene (5 ml). Experiments have shown that >90% [14C] oestrone and <0.1% [3H]oestrone-3-sulphate is removed from the aqueous phase by this treatment. A portion (2 ml) of the organic phase is removed, evaporated and the 3H and 14C content of the residue determined by scintillation spectrometry. The mass of oestrone-3-sulphate hydrolysed was calculated from the 3H counts obtained (corrected for the volumes of the medium and organic phase used, and for recovery of [14C] oestrone added) and the specific activity of the substrate. Each batch of experiments includes incubations of microsomes prepared from a sulphatase-positive human placenta (positive control) and flasks without cells (to assess apparent non-enzymatic hydrolysis of the substrate). The number of cell nuclei per flask is determined using a Coulter Counter after treating the cell monolayers with Zaponin. One flask in each batch is used to assess cell membrane status and viability using the Trypan Blue exclusion method (Phillips, H. J. (1973) In: Tissue culture and applications, [eds: Kruse, D. F. & Patterson, M. K.]; pp. 406-408; Academic Press, New York).
Results for steroid sulphatase activity are expressed as the mean±1 S.D. of the total product (oestrone+oestradiol) formed during the incubation period (3-4 hours) calculated for […] and, for values showing statistical significance, as a percentage reduction (inhibition) over incubations containing no oestrone-3-sulphamate. Unpaired Student's t-test was used to test the statistical significance of results.

[3] = molecular target: T3, oestrone sulphatase (STS) (Rattus norvegicus, UniProt P15589); assay: Inhibition of oestrone sulphatase activity in vivo (Protocol 3)
T3 construct: samples of liver tissue were obtained and oestrone sulphatase activity assayed; from tissue; host or cells: rat liver
T3 sequence (P15589 20-577): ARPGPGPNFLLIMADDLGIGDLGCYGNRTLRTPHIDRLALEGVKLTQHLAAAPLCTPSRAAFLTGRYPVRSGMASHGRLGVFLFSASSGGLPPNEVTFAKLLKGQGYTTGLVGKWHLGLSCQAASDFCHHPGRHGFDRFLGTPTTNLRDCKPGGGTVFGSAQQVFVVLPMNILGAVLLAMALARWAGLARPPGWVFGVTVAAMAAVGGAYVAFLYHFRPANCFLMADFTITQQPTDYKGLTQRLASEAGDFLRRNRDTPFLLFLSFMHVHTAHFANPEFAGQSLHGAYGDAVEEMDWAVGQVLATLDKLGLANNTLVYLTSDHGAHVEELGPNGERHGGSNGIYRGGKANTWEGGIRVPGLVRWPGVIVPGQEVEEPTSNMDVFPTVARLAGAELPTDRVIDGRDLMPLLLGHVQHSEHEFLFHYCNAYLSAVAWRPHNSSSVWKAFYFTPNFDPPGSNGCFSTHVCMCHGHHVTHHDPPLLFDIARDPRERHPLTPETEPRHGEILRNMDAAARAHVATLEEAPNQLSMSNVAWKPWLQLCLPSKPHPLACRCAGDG
Description: The compounds of the present invention may be studied using an animal model, in particular in ovariectomised rats. In this model compounds which are oestrogenic stimulate uterine growth.
At the end of the study samples of liver tissue were obtained and oestrone sulphatase activity assayed using 3H oestrone sulphate as the substrate as previously described (see PCT/GB95/02638).
In vivo data were recorded using the above described aromatase and STS animals assays. The relevant compounds were administered and for each animal both aromatase and STS activities were determined.

[4] = molecular target: T4, E1-STS (Homo sapiens, UniProt P08842); settings: 0.1 nM; cited from earlier work
T4 construct: host or cells: MCF-7 cells
T4 sequence (P08842 22-583): T2 sequence (P08842 22-583)

[5] = test system: uterus; settings: cited from earlier work
[6] = molecular target: T5, steroid sulphatase (Homo sapiens, UniProt P08842); settings: versus EMATE; cited from earlier work
T5 sequence (P08842 22-583): T2 sequence (P08842 22-583)

[7] = JEG-3; read-out: % AROMATASE INHIBITION (10 μM)
[8] = JEG-3, read-out: % AROMATASE INHIBITION (10 μM)

Structure (SMILES)	inhibition at 10 µM [1, 7] [%]	inhibition at 10 µM [2] [%]	further results
CC(C)(C#N)c1cc(CSc2ccc(O)cc2)cc(Cn2cncn2)c1 [STX1022]	–	–	IC50 ([1]; JEG3 cells): 1 nM
N#CC1(c2cc(CSc3ccc(OS(N)(=O)=O)c(Cl)c3)cc(Cn3cncn3)c2)CCC1 [STX1794, 4-((3-((1H-1,2,4-triazol-1-yl)methyl)-5-(1-cyanocyclobutyl)benzyl)sulfanyl)-2-chlorophenyl sulfamate]	99.7 ± 0.1	75.3 ± 0.6	–
COC(=O)c1cc(Cn2cncn2)cc(NC(=O)c2ccc(OS(N)(=O)=O)cc2)c1 [STX1830, 3-(4-Sulfamoyloxy-benzoylamino)-5-[1,2,4]triazol-1-ylmethyl-benzoic acid methyl ester]	–	33.4 ± 5.3	inhibition at 10 µM [1, 8]: 52.7 ± 6.7%
CC(C)(C#N)c1cc(CSc2ccc(OS(N)(=O)=O)c(Br)c2)cc(Cn2cncn2)c1 [STX1795, 4-((3-((1H-1,2,4-triazol-1-yl)methyl)-5-(2-cyanopropan-2-yl)benzyl)sulfanyl)-2-bromophenyl sulfamate]	100	–	–
CC(C)(C#N)c1cc(Cn2cncn2)cc(-c2ccc(OS(N)(=O)=O)cc2)c1 [STX1523, Sulfamic acid 3′-(cyano-dimethyl-methyl)-5′-[1,2,4]triazol-1-ylmethyl-biphenyl-4-yl ester]	99.7 ± 0.2	24.4 ± 3.1	–
CC(C)(C#N)c1cc(COc2ccc(OS(N)(=O)=O)cc2)cc(Cn2cncn2)c1	99.8 ± 0.2	< 10	–
CC(C)(C#N)c1cc(CSc2ccc(OS(N)(=O)=O)cc2)cc(Cn2cncn2)c1 [STX1023]	–	–	inhibition at 10 mg/kg [3]: 87%; IC50 ([1]; JEG3 cells): 3.5 nM; IC50 ([2]; JEG3 cells): > 10000 nM
CC12CCC3c4ccc(OS(N)(=O)=O)cc4CCC3C1CCC2=O (stereo not drawn) [EMATE, oestrone-3-sulphamate]	–	–	inhibition of E1-STS activity in intact MCF-7 cells [4]: more than 99%; oral uterotrophic activity relative to estradiol ([5]; rats, oral, versus estradiol): 100 times
COC(=O)c1cc(Cn2cncn2)cc(N(C)S(=O)(=O)c2ccc(OS(N)(=O)=O)cc2)c1 [STX1829, 3-[Methyl-(4-sulfamoyloxy-benzenesulfonyl)-amino]-5-[1,2,4]triazol-1-ylmethyl-benzoic acid methyl ester]	99.5 ± 0.2	17.6 ± 4	–
N#Cc1ccc(-c2ccc(OS(N)(=O)=O)cc2)cc1Cn1cncn1 [STX1522, Sulfamic acid 4′-cyano-3′-[1,2,4]triazol-1-ylmethyl-biphenyl-4-yl ester]	–	96.1 ± 0.3	inhibition at 10 µM [1, 8]: 98 ± 0.3%
N#CC1(c2cc(CSc3ccc(OS(N)(=O)=O)cc3)cc(Cn3cncn3)c2)CCC1 [STX1731, 4-((3-((1H-1,2,4-triazol-1-yl)methyl)-5-(1-cyanocyclobutyl)benzyl)sulfanyl)phenyl sulfamate]	99.5 ± 0.2	21.4 ± 7.9	–
N#CC1(c2cc(CSc3ccc(OS(N)(=O)=O)cc3)cc(Cn3cncn3)c2)CC1 [STX1732, 4-((3-((1H-1,2,4-triazol-1-yl)methyl)-5-(1-cyanocyclopropyl)benzyl)sulfanyl)phenyl sulfamate]	99.8 ± 0.1	< 10	–
COc1cc2c(cc1OS(N)(=O)=O)CC[C@@H]1[C@@H]2CC[C@]2(C)C(=O)CC[C@@H]12 [2-methoxyoestrone-3-O-sulphamate]	–	–	potency as steroid sulphatase inhibitor relative to EMATE [6]: equipotent with EMATE; oestrogenicity ([5]; rat, in vivo): devoid of oestrogenicity
CC(C)(C#N)c1cc(/C=C/c2ccc(OS(N)(=O)=O)cc2)cc(Cn2cncn2)c1 [STX1833, 4-(3-((1H-1,2,4-triazol-1-yl)methyl)-5-(2-cyanopropan-2-yl)styryl)phenyl sulfamate]	–	21.5 ± 4.7	–
CC(C)(C#N)c1cc(CSc2ccc(OS(N)(=O)=O)c(Cl)c2)cc(Cn2cncn2)c1	99.9 ± 0.2	82.3 ± 0.8	–
COC(=O)c1cc(Cn2cncn2)cc(NS(=O)(=O)c2ccc(OS(N)(=O)=O)c(F)c2)c1 [STX1528, 3-(3-Fluoro-4-sulfamoyloxy-benzenesulfonylamino)-5-[1,2,4]triazol-1-ylmethyl-benzoic acid methyl ester]	–	< 10	inhibition at 10 µM [1, 8]: 83.4 ± 1.3%
